Read-outs that look alike come from different tables or passages of the source.
What was measured:
[1] = test system: S. aureus or MRSA; assay type: cell-based, Staphylococcus aureus; conditions: Table 4, range over 5 strains
Protocol: MIC of cationic polymers and polypeptide were tested in accordance with the Clinical and Laboratory Standards Institute (CLSI) guidelines against a panel of antibiotic-susceptible/-resistant bacteria, yeasts and fungal strains. Bacterial and yeast strains were cultured on tryptic soy agar (TSA) and Sabaroud dextrose agar (SDA) plates (Neogen Corporation, MI, USA) overnight respectively. Inocula in Mueller-Hinton broth (MHB) for bacteria and SD broth for C. albicans (Beckton Dickinson, MD, USA) were prepared at 0.5 McFarland. The suspensions were then diluted to a final concentration of 10^5 CFU/ml in a 96-well microtitre plate (SPL Life Sciences Co., Ltd, Korea). Polymers and polypeptides were added to the inoculum in 2-fold serial dilutions to give a range of concentrations from 2-1024 μg/ml. […] The antimicrobial activities were compared with topical antiseptic agents, BAK and CHX. A similar protocol was used to determine the MIC of εPL against antibiotic-resistant pathogens. MIC of the polymers and polypeptides against Fusarium strains was determined in full strength RPMI-1640 buffer. Fungal spores were recovered from a 5-day old culture on a potato dextrose agar and diluted to a concentration of 10^5 spores/ml in 0.9% saline solution. A further 50-fold dilution was done in RPMI-1640 buffer and 100 μl of the inoculum was added to 96 well plates containing an equal volume of test peptides at 2-fold serial dilutions. 200 μl of inoculum without any additives and buffer alone served as positive and negative controls, respectively. The plate was then incubated at 30° C. for 48 h. The absorbance value was measured at 600 nm as before and the lowest concentration of the peptide which inhibited 90% growth was reported. All MIC determinations were performed in duplicates.
MICs of polymers/antibiotics were determined using the microdilution method in 96 well microtitre plates (SPL Life Sciences Co., Ltd, Korea), following the guidelines of Clinical and Laboratory Standards Institute (CLSI) document M100-S18. Briefly, polymers (1-512 μg/ml) or antibiotics were dissolved in appropriate media (Mueller Hinton broth, MHB for bacteria; Sabaroud's Dextrose (SD) broth for yeasts and RPMI buffer for Fusarium strains) and 100 μl of this was then mixed with an equal volume of microbial inoculum (OD600=˜0.08) in the same media and shaken in a closed incubator.

[2] = test system: primary human dermal fibroblasts (HDFs); assay: MTS cytotoxicity assay
Protocol: MTS ((3-(4,5-dimethylthiazol-2-yl)-5-(3-carboxymethoxyphenyl)-2-(4-sulfophenyl)-2H-tetrazolium)) assay and high content analysis (HCA) were performed to elucidate the effect of various polymers on metabolic activity and morphological parameters of cultured human dermal fibroblasts (hDF), respectively as described previously. The antineoplastic agent, nocodazole (5 μg/ml), served as the […] control whereas cells treated with PBS served as positive control. The average values from three independent triplicate experiments are reported. Cells were cultured in 96-well plates and scanned (16 randomly selected fields/well) using an automated microscope IN Cell Analyzer 2200 (GE Healthcare). The multi-parametric cytotoxicity bio-application module of the IN Cell Investigator software (GE Healthcare) was used in quantitative estimations and morphotypic analysis of acquired images, which were automatically converted into color-coded heatmaps using Spotrfire® software.
Human dermal fibroblast cells were seeded in 96-well plates (2×10^3 cells/well) and incubated for 24 h at 37° C. and 5% CO2. Cells were then treated with various concentrations of polymers or peptides (62.5 μg/ml-1 mg/ml. At the end of the treatment period (after 24 h), 20 or 50 μl of MTS tetrazolium solution was added into 96-well or 12-well plates and further incubated for 2 h at 37° C. Subsequently, the absorbance was measured at 490 nm using a microplate reader (Infinite M200 Pro, Tecan, Switzerland) and the relative cell viability was calculated. Each treatment was performed in two triplicates and reported.
The cytotoxicity of peptides and polymers were determined using CellTier 96® Aqueous One solution cell proliferation assay kit according to the manufacturer's instruction (Promega Corporation, Madison, Wis.). This assay evaluates mitochondrial function by measuring ability of viable cells to reduce MTS ((3-(4,5-dimethylthiazol-2-yl)-5-(3-carboxymethoxyphenyl)-2-(4-sulfophenyl)-2H-tetrazolium)) into a quantifiable […] formazan product. HDFs were seeded in 96-well plates (2×10^3 cells/well) and incubated for 24 h at 37° C. and 5% CO2. Cells were then treated with a concentrated stock solution of polymers (final concentration 62.5-2000 μg/ml in the well) or peptides (final concentration 4-1000 μg/ml in the well). After 24 h, 20 μl of MTS tetrazolium solution was added into 96-well well plates and further incubated for 2 h at 37° C. Subsequently, the absorbance was measured at 490 nm using a microplate reader (Infinite M200 Pro, Tecan, Switzerland) and the relative cell viability was calculated relative to untreated control (10 mM PBS, pH 7.0). Each treatment was performed in two triplicates and reported.

[3] = test system: VRE 1002; assay: SYTOX green (SG) uptake assay and bacterial viability; assay type: cell-based, Enterococcus
Protocol: To discern the pore-forming ability of modified peptide in comparison with melittin, the SYTOX green (SG) uptake assay was performed upon exposure of the peptides and their bactericidal properties were determined. […] Therefore the fluorescence intensity is taken to be proportional to the degree of cell membrane disruption caused by test peptides.

[4] = test system: red blood cells; conditions: cited from earlier work

In the case of `CC[C@H](C)[C@H](NC(=O)CN)C(=O)NCC(=O)N[C@@H](C)C(=O)N[C@H](C(=O)N[C@@H](CC(C)C)C(=O)N[C@@H](CCCCN)C(=O)N[C@H](C(=O)N[C@@H](CC(C)C)C(=O)N[C@H](C(=O)N[C@H](C(=O)NCC(=O)N[C@@H](CC(C)C)C(=O)N1CCC[C@H]1C(=O)N[C@@H](C)C(=O)N[C@@H](CC(C)C)C(=O)N[C@H](C(=O)N[C@@H](CO)C(=O)N[C@@H](Cc1c[nH]c2ccccc12)C(=O)N[C@H](C(=O)N[C@@H](CCCCN)C(=O)N[C@@H](CCCNC(=N)N)C(=O)N[C@@H](CCCCN)C(=O)N[C@@H](CCCNC(=N)N)C(=O)N[C@@H](CCC(N)=O)C(=O)N[C@@H](CCC(N)=O)C(N)=O)[C@@H](C)CC)[C@@H](C)CC)[C@@H](C)O)[C@@H](C)O)C(C)C)C(C)C` [Melittin], the “MIC against S. aureus or MRSA (n = 5)” value [1] is reported as 4 to 8 µg/mL, the “Cytotoxicity (in μg/ml) for HDFs” value ([2]; Concentration at which complete cytotoxicity was observed in MTS and HCA) is reported as 16 µg/mL and the “Cytotoxicity for primary human dermal fibroblasts” value ([2]; Table 5) is reported as 16 µg/mL. The SG uptake ([3]; VRE 1002, at 1×MIC) was 79.2%, the SG uptake ([3]; VRE 1002, at 2×MIC) was 89.7% and the Haemolytic activity ([4]; at 4 μM, reference 4) was 100% at 4 μM. The Haemolytic activity ([4]; at 5 μM, reference 8) was 50% at 5 μM and the Haemolytic activity ([4]; at 10 μM, reference 6) was >80% at 10 μM.

Source: patent US11396531B2, “Antimicrobial peptides comprising epsilon lysine residues” (priority 2016, dated 2022)
